Measured values published in US12559784B2 (priority 2023, dated 2026).
Several values for one entry are separate records, joined by “and”; a condition that tells them apart may be missing. Equal values may be shown once. Read-outs that look alike come from different tables or passages of the source.

Assays:
alkaline phosphatase [1] = conditions: 30 μL chemical in 300 μL reagent 1:100, 4 hours room temperature, 3 mL PNPP 1 hour
Protocol: We changed the test chemical dosage to 30 μL and the alkaline phosphatase reaction reagent to 300 μL, but kept the incubation to 4 hours at room temperature.
PBS: Take 4 mL of AP (1:10) stock solution, add to 36 mL PBS. Vortex mix and then invert to mix 10 times • ii. […] Vortex mix and then invert to mix 10 times • b. PBS (lx) • c. […] Prepare 4 mL glass vials for dosing • a. Four sets • i. R1+ (PBS-AP) • ii. R1− (PBS) • iii. […] Prepare 96-well plates for PNPP reading (3 wells for each test chemical) Procedure • 1. Aliquot 300 μL of each reaction reagent to 4 mL glass vials. • 2. Add 30 μL of the test sample to each 4 mL glass vial. • 3. Incubate at room temperature for 4 hours. • 4. Aliquot 3 mL of PNPP to each 4 mL glass vial, let sit for 1 hr. • a. Aliquot 750 μL into the 4 mL glass vial to stop the reaction. • 5.

alkaline phosphatase [2] = format: biochemical; conditions: PBS; 18 hours room temperature, PNPP 1 hour
Source text: Our next study compared different dilutions of the original alkaline phosphatase source (1:10 [Activity: 1,000 units] and 1:100 [100 units]) and two sources of alkaline phosphatase, both purchased from Sigma Aldrich (St. Louis, MO). […] The five conditions for this study included original alkaline phosphatase (1:1), original alkaline phosphatase (1:10), original alkaline phosphatase (1:100), new alkaline phosphatase (1:1), and the blanks (phosphate buffered saline (PBS)). […] The two controls contained ink to determine if there would be any background effect.
Preparation • 1. Alkaline phosphatase reaction reagent • a. Original AP • i. Add 1 mL PBS into AP vial, pipette re-pipette 10 times, then invert with cap on, to mix well. Take this 1 mL and add to 50 mL conical tube filled with 40 mL PBS. Invert to mix 10 times, vortex mix, let sit 2 minutes, invert to mix again 10 times • ii. Prepare 2 more 50 mL conical tubes • 1. 1:10 • a. […] 1:100 • a. Take 4 mL of solution made above, add to 36 mL PBS. […] New AP • i. Add 400 mg into a 50 mL conical tube filled with 40 mL PBS. Invert to mix 10 times, vortex mix, let sit 2 minutes, invert to mix 10 more times. Check to make sure all suspended. If not, vortex mix and invert until fully suspended. • 2. Prepare 24-well plates • 3. […] Aliquot with 200 μL PNPP Conditions • 1. Old AP • 2. Old AP (1:10) • 3. Old AP (1:100) • 4. New AP • 5. Blank (PBS only) Procedure • 1. 24-well plates • a. Add 1 mL (using P1000, blue tips) of the prepared PBS-AP to the plate (for each condition) • b. Add 100 μL of the test material to the well, mix with the same pipette tip, dispose and repeat for the rest of the test materials • c. Wrap the plate in saran wrap and place into the container • d. […] To the prepared 96-well plate with 200 μL PNPP or PBS, add 20 μL from the 24-well plate • 3. Incubate for 1 hour • 4.

alkaline phosphatase [3] = assay: Alkaline phosphatase experiment, seventh week: 1:100 vs 1:1000 dilution, room temperature vs 37° C.; conditions: for OD405 reading, 1:1000 ethanol solvent condition (FIG. 9B): 4-hour exposure, 1-hour PNPP
Protocol: Preparation • 1. Alkaline phosphatase reaction reagent • a. 1:100 • i. PBS: Take 400 μL of AP (1:10) stock solution, add to 3.6 mL PBS. Vortex mix and then invert to mix 10 times • ii. […] Vortex mix and then invert to mix 10 times • b. 1:1000 • i. PBS: Take 400 μL of AP (1:100) stock solution, add to 3.6 mL PBS. Vortex mix and then invert to mix 10 times • ii. […] Vortex mix and then invert to mix 10 times • 2. Prepare 0.5 mL microcentrifuge tubes for dosing • a. One set for room temperature, one set for 37° C. • 3. Prepare 96-well plates for PNPP reading (3 wells for each test chemical) • a. Aliquot with 200 μL PNPP Conditions • 1. 1:100 in PBS at RT • 2. […] 1:100 in PBS at 37° C. • 4. […] 1:1000 in PBS at RT • 6. […] 1:1000 in PBS at 37° C. • 8. […] Procedure • 1. In each microcentrifuge tube for each condition, add 180 μL of the corresponding AP reaction reagent • 2. Add 20 μL of the test chemical to each microcentrifuge tube • 3. Incubate for 4 hours (one set at room temperature; one set at 37° C.) • 4. To prepared 96-well plates with 200 μL PNPP aliquoted, add 20 μL of each microcentrifuge tube to the corresponding well • 5.

[4] = cited from earlier work
skin = conditions: cited from earlier work
alkaline phosphatase [5] = format: biochemical
Protocol: New stocks were made the of the 1:100 alkaline phosphatase reaction reagents.
The conditions included: 1:100 dilution of alkaline phosphatase reaction reagent with two solvents (buffered saline and ethanol), dosing in 0.5 mL microcentrifuge tubes with 20 μL of chemical added to 180 μL of reaction reagent, and incubating with p-Nitrophenyl phosphate disodium salt (PNPP) substrate for 1-hour.

porcine skin = conditions: fresh porcine skin; 140 μL test chemical; R 1 and 2; >3A = outside readable range
Protocol: Our initial studies involved using fresh and frozen porcine skin “buttons”. These buttons were punched out of porcine skin (Spear Products, Cooopersburg, PA) using a […] biopsy punch tool. Three different kinds of skin buttons were prepared from fresh porcine skin, frozen porcine skin, and frozen porcine skin with the fatty layer removed. […] The next day, the tubes were taken out and vortexed and 500 μL of the solution was aliquoted into cuvettes to read at three different optical density wavelengths (OD190, OD290, OD300) to evaluate the best response.
Skin Preparation • 1. Thaw 2 pieces of frozen porcine skin • 2. Punch out buttons: 24 buttons in each tube filled with 40 mL PB S-Azide 96-well plate Preparation • 1. Plate layout for dosing:
Procedure • 1. Dose each tissue with 140 μL of test chemical • 2. […] Take out of incubator and vortex pulse 3× • 2. Aliquot 500 μL to cuvette and read results at OD190, OD290, and OD300
There were three readings done at an optical density of 190, 290, and 300 nm to evaluate the best response. […] To address the variable exposure conditions, our next studies involved placing a larger porcine skin section into a holder that exposes only the epidermis side with no potential for test chemical exposure from the backside or through the sides.

alkaline phosphatase [6] = assay: Alkaline phosphatase experiment, third week: with and without discs; format: biochemical; conditions: 405 nm, 100 μL chemical, 18 hours 37° C., PNPP 1 hour
Source text: Our next study focused on an in vitro method of detecting the potential of dermal corrosives to inhibit nonspecific phosphatases that may be released from the skin. We decided to test pure […] instead of relying on endogenous skin phosphatase. Alkaline phosphatase (Sigma Aldrich, St. Louis, MO) was purchased and suspended to make the reaction reagent (10,000 units). […] We note that the ratio used was 0.1 g/ml or 10% chemical—which is far in excess of any pharmaceutical applications. We further note that pharmaceutical enzyme inhibition tests, studies an use involve highly specific active site binding and these assays are conducted at ratios of micrograms-femtograms per ml. These studies are done at these ranges because these are the realistic concentrations for drug applications and therapeutics. […] So when a 50 Kg human consumes the tables, the tissues will be exposed at a 5 mg/50 kg=0.1 mg/kg=0.0000001 g/ml.
Next two quantitative methods were evaluated: 1) using the discs parts from our OptiSafe™ test method and 2) directly into the 24-well plate.
Preparation • 1. Alkaline phosphatase reaction reagent • a. Take 1 vial of AP, add 1 mL of PBS, mix by pipette/re-pipette 10 times • b. To a 50 mL conical tube, add 1 mL of the AP solution prepared above and 40 mL of PBS • 2. Prepare two 24-well plates (1 with discs, 1 without discs) • 3. […] Aliquot 200 μL PNPP and PBS Procedure • 1. Plate 1 (No Discs) • a. Add 1.25 mL from the prepared PBS-AP conical tube to each well (11 wells) • b. Add 100 μL of the test material to the well, mix with the same pipette tip, dispose and repeat for the rest of the test materials • c. Wrap the plate in saran wrap and place into the container • 2. Plate 2 (Discs) • a. Configure the 11 discs in the plate so the plate cover is stable • b. Add 1.25 mL from the prepared PBS-AP conical tube to each well (11 wells) • c. Add 100 μL of the test material to the center of the disc and repeat for the rest of the test materials • d. Put the plate cover on and place into the container • 3. […] Incubate for 1 hour Reading Results • 1. Measure at OD405

phosphatase = format: biochemical, porcine
Protocol: Our next studies involved applying the test substance (500 μL) directly to the epidermis side of previously frozen porcine skin (Spear Products, Coopersburg, PA) that is placed in a holder that only exposes the epidermis side for 30 minutes, adding phosphate buffered saline (PBS) with added sodium azide (metabolic inhibitor that ensure no viable tissue), then aliquoting into cuvettes to read at an optical density of 300 nm. […] So, at the end of the initial studies described above, almost out of frustration, we tried to probe for released phosphatase activity using p-Nitrophenyl phosphate disodium salt (PNPP; Sigma Aldrich, St. Louis, MO) substrate solution to detect any presence of phosphatase.
Preparation • 1. Thaw 2 pieces of frozen porcine skin • a. Punch out as many skin discs and mount in holders • 2. Label cuvettes (3 for each chemical) Procedure • 1. Add 500 μL of test chemical to holder; incubate at room temperate for 30 minutes • 2. After 30 minutes, add 2 mL of PBS-Azide to both the holder containing the test chemical; forcefully pipette and re-pipette 10 times • 3. From the holder, aliquot 400 μL into 3 cuvettes; forcefully pipette and re-pipette 3 times before dispensing into cuvettes Reading Results • 1. Measure at OD300 for all cuvettes
Skin corrosion by GHS Category 1 dermal corrosive chemicals results in the disintegration of the epidermis into the dermis.

alkaline phosphatase [7] = format: biochemical; remark: listed apart in the source
Protocol: For the new study, the alkaline phosphatase was suspended in phosphate buffered saline (PBS) to make the reaction reagent. Then, 100 μL of the test chemical is added directly into the corresponding wells on a 24-well plate with 1.25 mL of alkaline phosphatase reaction reagent already aliquoted.
Preparation • 1. Alkaline phosphatase reaction reagent • a. Take 1 vial of AP, add 1 mL of PBS, mix by pipette/re-pipette 10 times • b. To a 50 mL conical tube, add 1 mL of the AP solution prepared above and 40 mL of PBS • 2. Prepare two 24-well plates • 3. […] Aliquot with 200 μL PNPP and PBS • 4. Prepare glass vials Repeat Procedure from 1-3-23 • 1. 24-well plate • a. Add 1.25 mL from the prepared PBS-AP conical tube to each well (11 wells) • b. Add 100 μL of the test material to the well, mix with the same pipette tip, dispose and repeat for the rest of the test materials • c. Wrap the plate in saran wrap and place into the container • 2. […] To the prepared 96-well plate with 200 μL PNPP or PBS, add 20 μL from the 24-well plate • 4. Incubate for 1 hour • 5. […] 24-well plate • a. Add 1.25 mL from the prepared PBS-AP conical tube to each well (11 wells) • b. Add 100 μL of the test material to the well, mix with the same pipette tip, dispose and repeat for the rest of the test materials • c. After 10 minutes, mix each well • 2. To the prepared 96-well plate with 200 μL PNPP or PBS, add 20 μL from the 24-well plate • 3. […] Aliquot 200 μL from the 24-well plate to glass vials filled with 2 mL of PNPP

alkaline phosphatase [8] = format: biochemical; conditions: 3-hour exposure
[9] = skin, chemical lists of the experiments
[10] = 10 minutes test chemical exposure

SMILES	OD405 readings, original alkaline phosphatase 1:100 (FIG. 6D) (alkaline phosphatase [2])	solubility with water [4]	A2 - Results AVG (alkaline phosphatase [5])	A2 - Results R1 (alkaline phosphatase [5])	A2 - Results R3 (alkaline phosphatase [5])	in vivo GHS (skin; [9])	other results
CN(C)Cc1ccccc1 [N,N-Dimethylbenzylamine]	3.431 and 3.502 and 3.61	mostly insoluble with water	0.570	0.588	0.539	–	OD405 readings, buffered saline alkaline phosphatase reaction reagent, glass vials (FIG. 11B) (alkaline phosphatase [1]): 3.360 and 3.238 and 3.273; OD405 readings, ethanol alkaline phosphatase reaction reagent, glass vials (FIG. 11D) (alkaline phosphatase [1]): 3.429 and 3.249 and 3.164; OD405 reading, 1:1000 ethanol solvent condition (FIG. 9B) (alkaline phosphatase [3]): 0.587; in vivo GHS (skin; rabbit, in vivo): Cat. 1C
CSc1ccc(C=O)cc1	–	–	3.333	3.379	3.266	–	OD405 reading, 1:100 ethanol solvent condition, 37° C. (alkaline phosphatase [3]; 37° C.): 0.857; OD405 reading, 1:100 ethanol solvent condition, room temperature (alkaline phosphatase [3]; room temperature): 2.243
CN(C)CCCNCCCN [Dimethyldipropylenetriamine]	–	–	0.117	0.119	0.114	Cat. 1A	OD190 (porcine skin): >3A; raw optical density reading (PNPP), with discs (FIG. 3A) (alkaline phosphatase [6]; 1.25 mL reaction reagent (10,000 units)): 0.152 and 0.159 and 0.140; raw optical density reading (PNPP), without discs (FIG. 3B) (alkaline phosphatase [6]; 1.25 mL reaction reagent): 0.138 and 0.176 and 0.133; percent of phosphatase measured (optical density compared to the naïve condition), average (phosphatase; average of two readings): 20.6%; percent of phosphatase measured (optical density compared to the naïve condition) (phosphatase; single readings): 23.5% and 17.7%; Corrosive (skin; Yes/No): Yes; in vivo GHS (skin; skin, Tables 1A-1C and 2): Cat. 1A; raw optical density reading (PNPP), repeat without discs (FIG. 4) (alkaline phosphatase [7]; 405 nm, 18 hours 37° C. exposure, PNPP 1 hour): 0.132 and 0.128 and 0.127; 10-minute PNPP incubation readings (FIG. 5A) (alkaline phosphatase [7]; [10]): 3.500; 18-hour PNPP incubation readings (FIG. 5D) (alkaline phosphatase [7]; [10]): 0.110
ClCCCCBr [1-Bromo-4-chlorobutane]	–	–	2.849	2.948	2.869	–	OD405 reading, ethanol solvent, 10 μL dose, 30-minute PNPP (FIG. 7A) (alkaline phosphatase [8]; 10 μL into 90 μL): 3.349; OD405 reading, ethanol solvent, 50 μL dose, 30-minute PNPP (FIG. 7A) (alkaline phosphatase [8]; 50 μL into 50 μL): 0.700; OD405 reading, 1:1000 ethanol solvent condition (FIG. 9B) (alkaline phosphatase [3]): 0.799
CC(C)N(C)C [Dimethylisopropylamine]	3.466 and 3.502	mostly insoluble with water	0.244	0.226	0.295	Cat. 1B/1C	OD405 readings, buffered saline alkaline phosphatase reaction reagent, glass vials (FIG. 11B) (alkaline phosphatase [1]): 3.354 and 3.466 and 3.502; OD405 readings, ethanol alkaline phosphatase reaction reagent, glass vials (FIG. 11D) (alkaline phosphatase [1]): 2.926 and 2.922 and 2.852
CCCCCCCN [n-Heptylamine]	3.244 and 3.057 and 3.152	mostly insoluble with water	0.175	0.170	0.193	Cat. 1B/1C	–
[K+].[OH-] [Potassium hydroxide (10%), Potassium hydroxide]	–	–	0.108	0.107	0.108	–	raw optical density reading (PNPP), repeat without discs (FIG. 4) (alkaline phosphatase [7]): 0.123 and 0.124
